Assay results published in article PMC6691192 (Chemical communications (Cambridge, England), 2019).

Test system: non-cancerous human breast cell line MCF-10A
Test: Cell viability assay
Format: cell-based
Conditions: for EC50(C)/EC50 (B): selectivity ratio MCF-10A over BT-474; for EC50(C)/EC50(A): selectivity ratio MCF-10A over MCF-7

CC[P](CC)(CC)=[Au][S][C@@H]1O[C@H](COC(C)=O)[C@@H](OC(C)=O)[C@H](OC(C)=O)[C@H]1OC(C)=O [AF, [(2R,3R,4S,5R,6S)-3,4,5-tris(acetyloxy)-6-{[(triethyl-λ5-phosphanylidene)aurio]sulfanyl}oxan-2-yl]methyl acetate]
EC50(C)/EC50 (B): 0.81 ± 0.13
EC50(C)/EC50(A): 0.78 ± 0.11

[Cl][Au].c1ccc(P(c2ccccc2)c2ccccc2)cc1 [[AuCl(PPh3)]]
EC50(C)/EC50 (B): 5.70 ± 0.43
EC50(C)/EC50(A): 5.30 ± 0.61

[Au(mba)(PPh3)]
EC50(C)/EC50 (B): 1.57 ± 0.13
EC50(C)/EC50(A): 2.34 ± 0.35
